These results are taken from patent publication US8802686B2, “Sulfone-substituted anilinopyrimidine derivatives as CDK inhibitors, the production thereof, and use as a medicine” (Bayer Intellectual Property GmbH, priority 2008, dated 2014).

In one data set the target is CDK4/CycD1 (Homo sapiens (Human), UniProt P11802). Kind of data set: CDK4/CycD kinase assay (Assay 3). Type of data set: biochemical. As to conditions: read-out: CDK4/CycD (Assay 3) Concentration of the half-maximal inhibition of the enzyme activity, IC50. The method, then:
Recombinant CDK4 and CycD1-GST fusion proteins, purified from baculovirus-infected insect cells (Sf9), were purchased from ProQinase GmbH, Freiburg. CDK4/CycD1 (250 ng/measuring point) was incubated for 3 hours at 22° C. in the presence of different concentrations of test substances (0 μM, and within the range 0.001-10 μM) in 31 μl of assay buffer [50 mM Hepes pH 7.0; 2.5 mM MnCl; 0.05 mM Na ortho-vanadate; 1.0 mM dithiothreitol; 0.25 μM adenosine trisphosphate (ATP); 0.5 μM biotinylated myelin basic protein (bio-MPB, GE Healthcare); 0.05 μCi/measuring point ^33P-gamma ATP; 0.005% NP40; 0.025% bovine serum albumin; 3% dimethyl sulphoxide]. The reaction was stopped by adding 50 μl of stop-mix [100 μM ATP; 10 mM EDTA pH 8.0; 0.2% Triton X100; 0.125 mg of streptavidin-SPA Beads (GE Healthcare)]. After incubation for 10 min at room temperature, the SPA beads were pelleted by centrifugation (10 min; 1500 g). The amount of incorporated ^33P (substrate phosphorylation) was determined by scintillation measurement in a beta-radiation measuring instrument (Microbeta, Perkin Elmer).

Data set [1] has as its system HeLa-MaTu, human cervix carcinoma cells. Nature of the data set: Proliferation assay (Assay 5), HeLa-MaTu. As to conditions: 96 h, read-out: Concentration of the half-maximal inhibition of the cell proliferation, IC50. The data set is classed as cell-based. The source says:
(§1) Cultivated human tumour cells (MCF7, hormone-independent human breast carcinoma cells, acquired from ATCC HTB22; NCI-H460, human non-small-cell lung carcinoma cells, ATCC HTB-177; DU 145, hormone-independent human prostrate carcinoma cells, ATCC HTB-81; HeLa-MaTu, human cervix carcinoma cells, EPO-GmbH, Berlin; HeLa-MaTu-MDR, multiple drug-resistant human cervix carcinoma cells, EPO-GmbH, Berlin; Caco-2, human colon carcinoma cells, ATCC HTB-37; B16F10, murine melanoma cell, ATCC CRL-6475) were plated out at a density of ca. 1000-5000 cells/measuring point, depending on the growth rate of the particular cells, in a 96-well multititre plate in 200 μl of the corresponding growth medium. After 24 hours, the cells of one plate (zero-point plate) were stained with crystal violet (see below), whereas the medium of the other plates was replaced with fresh culture medium (200 μl), to which the test substances had been added at different concentrations (0 μM, and in the range 0.003-3 μM; the final concentration of the solvent dimethyl sulphoxide was 0.5%). The cells were incubated for 4 days in the presence of the test substances. Cell proliferation was determined by staining the cells with crystal violet: the cells were fixed by adding 20 μl/measuring point of an 11% glutaraldehyde solution for 15 min at room temperature. After washing the fixed cells with water three times, the plates were dried at room temperature. The cells were stained by adding 100 μl/measuring point of a 0.1% crystal violet solution (pH adjusted to pH 3 by adding acetic acid). After washing the stained cells with water three times, the plates were dried at room temperature. The dye was dissolved by adding 100 μl/measuring point of a 10% acetic acid solution. The extinction was determined photometrically at a wavelength of 595 nm. […] The IC50 values were determined by means of a 4-parameter fit using the company's own software.

For data set [2], the system named is HeLa-MaTu-ADR (HeLa-MaTu-MDR, multiple drug-resistant human cervix carcinoma cells). Nature of the data set: Proliferation assay (Assay 5), HeLa-MaTu-ADR. Type of data set: cell-based. As to conditions: 96 h, read-out: Concentration of the half-maximal inhibition of the cell proliferation, IC50.
Text: as §1

The subject of data set [3] is MCF7, hormone-independent human breast carcinoma cells. Nature of the data set: Proliferation assay (Assay 5), MCF7. The data set is classed as cell-based. As to conditions: read-out: Concentration of the half-maximal inhibition of the cell proliferation, IC50.
Text: as §1

The test system of data set [4] is NCI-H460, human non-small-cell lung carcinoma cells. Nature of the data set: Proliferation assay (Assay 5), NCI-H460. Type of data set: cell-based. Conditions: read-out: Concentration of the half-maximal inhibition of the cell proliferation, IC50.
Text: as §1

The subject of data set [5] is DU 145, hormone-independent human prostrate carcinoma cells. Kind of data set: Proliferation assay (Assay 5), DU145. Type of data set: cell-based. Conditions: DU-145, 96 h, read-out: Concentration of the half-maximal inhibition of the cell proliferation, IC50.
Text: as §1

For data set [6], the system named is Caco-2, human colon carcinoma cells. Kind of data set: Proliferation assay (Assay 5), Caco-2. The data set is classed as cell-based. As to conditions: read-out: Concentration of the half-maximal inhibition of the cell proliferation, IC50.
Text: as §1

Data set [7] relates to B16F10, murine melanoma cell. Kind of data set: Proliferation assay (Assay 5), B16F10. Type of data set: cell-based. As to conditions: Mus musculus, B16-F10, 96 h, read-out: Concentration of the half-maximal inhibition of the cell proliferation, IC50.
Text: as §1

Data set [8] can be described thus: Permeability assay (Assay 6), Caco-2 monolayer. As to conditions: human; for Papp A→B at 90 min / Papp B→A at 90 min: Caco-2, 90 min, 37° C.; for Papp A→B at 90 min: read-out: Permeation coefficient, Papp apical-basolateral (a-b); for Papp B→A at 90 min: read-out: Permeation coefficient, Papp basolateral-apical (b-a); for efflux ratio at 90 min: Caco-2, read-out: ratio (b-a)/(a-b). Type of data set: in vitro ADME. The method, then: The Caco-2 monolayer is a barrier between 2 compartments. The cells here behave similarly to the small intestine cells. Active ingredients can be transported either paracellularly or transcellularly. Here, the transport takes place in most cases from apical (luminal) to basolateral (serosal). In the case of p-glycoprotein substrates, back-transport from basolateral to apical is also usually observed.
Experimental procedure: The permeability test is carried out both from apical to basolateral and also from basolateral to apical. For this, two filters are used per substance; incubation takes place over 90 min at 37° C. in a water bath. […] As reference substances, (i) PEG 4000 are used as hydrophilic marker. On account of its high molecular weight, it is unable to permeate into the cell membrane or into the pores of the tight junctions. PEG 4000 is therefore a marker of the intactness of the cell monolayer and the narrowness of the tight junctions. PEG 4000 is not absorbed in humans. (ii) Clonidine is known as completely absorbed substances in people (100%). They serve as markers for very highly permeable substances with Papp values above 100 nm/s. (iii) Digoxin is a known Pgp substrate. […] In the reverse experiment (basolateral to apical), the Papp values should be higher by a factor of about 10 as a result of the active directional transport into the apical compartment.
The permeation coefficient Papp is used to estimate the absorption in people according to the following scheme: […]
A general note: Caco-2 cells form a polarised layer with tight junctions and transporters.

The next data set addresses CDK1/CycB (Homo sapiens (Human), UniProt P06493). Nature of the data set: CDK1/CycB kinase assay (Assay 1). Type of data set: biochemical. As to conditions: read-out: CDK1/CycB (Assay 1) Concentration of the half-maximal inhibition of the enzyme activity, IC50.
In the next data set the target is CDK2/CycE (Homo sapiens (Human), UniProt P24941). Kind of data set: CDK2/CycE kinase assay (Assay 2). Type of data set: biochemical. As to conditions: read-out: CDK2/CycE (Assay 2) Concentration of the half-maximal inhibition of the enzyme activity, IC50.
The target in data set [9] is VEGF receptor tyrosine kinase-2 (VEGF-R2) (Homo sapiens (Human), UniProt P35968). Kind of data set: VEGF receptor-2 kinase assay (Assay 4). As to conditions: read-out: VEGF-R2 (Assay 4) Concentration of the half-maximal inhibition of the enzyme activity, IC50. Type of data set: biochemical.
Chain of VEGF receptor tyrosine kinase-2 (VEGF-R2) (P35968 20-1356, species assumed): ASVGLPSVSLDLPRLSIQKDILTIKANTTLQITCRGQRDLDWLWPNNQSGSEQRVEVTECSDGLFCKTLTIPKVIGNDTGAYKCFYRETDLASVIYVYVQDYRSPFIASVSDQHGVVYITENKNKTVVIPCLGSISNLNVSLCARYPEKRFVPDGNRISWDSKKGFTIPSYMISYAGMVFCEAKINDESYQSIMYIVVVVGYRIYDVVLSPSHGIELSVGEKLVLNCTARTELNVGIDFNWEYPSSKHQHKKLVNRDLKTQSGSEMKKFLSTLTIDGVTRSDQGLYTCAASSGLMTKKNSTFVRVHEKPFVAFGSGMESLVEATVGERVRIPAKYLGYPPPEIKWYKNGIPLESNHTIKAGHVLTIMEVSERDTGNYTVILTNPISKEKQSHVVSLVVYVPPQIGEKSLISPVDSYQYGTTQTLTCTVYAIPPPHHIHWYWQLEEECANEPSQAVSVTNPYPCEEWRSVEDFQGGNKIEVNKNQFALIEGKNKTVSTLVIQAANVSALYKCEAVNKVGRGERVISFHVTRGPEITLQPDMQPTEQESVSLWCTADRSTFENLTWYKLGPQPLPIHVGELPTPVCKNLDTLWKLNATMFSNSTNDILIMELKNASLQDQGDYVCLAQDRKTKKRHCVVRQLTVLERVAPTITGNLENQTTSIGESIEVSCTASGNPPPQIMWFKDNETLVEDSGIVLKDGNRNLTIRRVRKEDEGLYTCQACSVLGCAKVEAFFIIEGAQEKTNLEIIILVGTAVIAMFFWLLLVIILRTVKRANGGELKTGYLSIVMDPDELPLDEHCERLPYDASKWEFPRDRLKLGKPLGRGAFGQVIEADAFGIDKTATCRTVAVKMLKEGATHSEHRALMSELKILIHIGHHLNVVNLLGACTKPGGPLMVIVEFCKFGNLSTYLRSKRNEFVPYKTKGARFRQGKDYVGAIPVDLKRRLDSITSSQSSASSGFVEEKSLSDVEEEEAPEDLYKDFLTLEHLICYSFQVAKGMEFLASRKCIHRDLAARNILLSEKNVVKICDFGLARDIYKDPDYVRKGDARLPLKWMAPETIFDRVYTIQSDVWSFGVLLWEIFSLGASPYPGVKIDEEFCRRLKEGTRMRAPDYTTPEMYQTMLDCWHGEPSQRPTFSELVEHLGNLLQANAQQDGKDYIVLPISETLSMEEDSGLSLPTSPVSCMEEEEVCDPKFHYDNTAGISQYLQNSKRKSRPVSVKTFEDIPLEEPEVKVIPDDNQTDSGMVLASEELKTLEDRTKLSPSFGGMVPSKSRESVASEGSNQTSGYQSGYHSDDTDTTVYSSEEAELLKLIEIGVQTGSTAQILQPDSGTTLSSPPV
Experimental: Recombinant VEGF receptor tyrosine kinase-2 was purified as GST fusion protein from baculovirus-infected insect cells (Sf9). Poly-(Glu4Tyr), which was used as kinase substrate, was purchased from Sigma.
VEGF receptor tyrosine kinase (90 ng/measuring point) was incubated for 10 min at 22° C. in the presence of different concentrations of test substances (0 μM, and within the range 0.001-10 μM) in 30 μl of assay buffer [40 mM Tris/HCl pH 5.5; 10 mM MgCl2; 1 mM MnCl2; 3 μM Na ortho-vanadate; 1.0 mM dithiothreitol; 8 μM adenosine trisphosphate (ATP); 0.96 μg/measuring point poly-(Glu4Tyr); 0.2 μCi/measuring point ^33P-gamma ATP; 1.4% dimethyl sulphoxide]. The reaction was stopped by adding EDTA solution (250 mM; pH 8.0; 15 μl/measuring point).
(§2) From each reaction mixture, 15 μl were applied to P30 filter strips (Wallac), and unincorporated ^33P-ATP was removed by washing the filter strips three times, for 10 min in each case, in 0.5% phosphoric acid. After drying the filter strips for 1 hour at 70° C., the filter strips were covered with scintillator strips (MeltiLex™ A, Wallac) and stoved for 1 hour at 90° C. The amount of incorporated ^33P (substrate phosphorylation) was determined by scintillation measurement in a gamma-radiation measuring instrument (Wallac). […] The IC50 values were determined by means of a 4-parameter fit using the company's own software.
A further data set deals with Caco-2 monolayer. Conditions: reference substance, cited from earlier work.
For data set [10] the following is noted: reference substance; cited from earlier work.

Structures are written as SMILES. Like-named read-outs stand apart in the source and are kept apart here.

Chain of CDK1/CycB (P06493 whole entry): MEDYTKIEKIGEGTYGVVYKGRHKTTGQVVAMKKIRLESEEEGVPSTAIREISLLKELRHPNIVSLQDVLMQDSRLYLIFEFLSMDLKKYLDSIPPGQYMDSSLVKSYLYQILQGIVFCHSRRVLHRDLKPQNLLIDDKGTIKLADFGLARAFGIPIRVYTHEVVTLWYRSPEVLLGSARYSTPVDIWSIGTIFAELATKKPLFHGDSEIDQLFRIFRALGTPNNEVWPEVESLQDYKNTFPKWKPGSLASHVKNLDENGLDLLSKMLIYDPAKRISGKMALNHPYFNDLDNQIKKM
Chain of CDK1/CycB (P14635 whole entry partner): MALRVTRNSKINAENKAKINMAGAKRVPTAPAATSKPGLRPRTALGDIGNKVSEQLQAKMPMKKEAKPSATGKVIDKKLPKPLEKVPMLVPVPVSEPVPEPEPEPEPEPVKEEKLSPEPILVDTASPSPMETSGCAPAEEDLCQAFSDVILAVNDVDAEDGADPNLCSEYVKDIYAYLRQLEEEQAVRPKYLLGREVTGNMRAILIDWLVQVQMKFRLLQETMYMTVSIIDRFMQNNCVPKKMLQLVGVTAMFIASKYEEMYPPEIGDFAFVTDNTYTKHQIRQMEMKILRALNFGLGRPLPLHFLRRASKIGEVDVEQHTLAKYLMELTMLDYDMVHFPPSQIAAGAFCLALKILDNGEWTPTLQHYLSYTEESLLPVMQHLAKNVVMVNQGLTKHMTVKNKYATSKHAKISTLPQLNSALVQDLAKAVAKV
Chain of CDK4/CycD1 (P11802 whole entry, the tested form may be a part): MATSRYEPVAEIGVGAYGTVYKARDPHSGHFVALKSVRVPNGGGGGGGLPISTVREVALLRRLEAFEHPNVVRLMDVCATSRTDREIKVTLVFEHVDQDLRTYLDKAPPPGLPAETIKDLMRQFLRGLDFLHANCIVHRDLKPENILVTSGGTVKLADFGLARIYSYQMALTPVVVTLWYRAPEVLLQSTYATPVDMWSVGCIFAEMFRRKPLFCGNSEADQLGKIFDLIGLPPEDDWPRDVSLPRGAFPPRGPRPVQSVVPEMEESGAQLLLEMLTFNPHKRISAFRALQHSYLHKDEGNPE
Chain of CDK4/CycD1 (P24385 whole entry partner, the tested form may be a part): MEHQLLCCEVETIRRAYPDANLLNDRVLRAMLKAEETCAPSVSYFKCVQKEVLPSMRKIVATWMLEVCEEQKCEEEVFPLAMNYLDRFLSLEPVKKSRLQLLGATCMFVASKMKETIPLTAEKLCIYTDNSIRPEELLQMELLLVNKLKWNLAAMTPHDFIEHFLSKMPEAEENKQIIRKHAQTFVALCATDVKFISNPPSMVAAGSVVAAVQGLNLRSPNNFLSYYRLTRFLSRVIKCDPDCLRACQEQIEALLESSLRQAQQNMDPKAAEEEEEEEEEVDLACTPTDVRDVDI
Experimental for CDK1/CycB: CDK1/CycB (200 ng/measuring point) was incubated for 10 min at 22° C. in the presence of different concentrations of test substances (0 and within the range 0.001-10 μM) in assay buffer [50 mM Tris/HCl pH 8.0; 10 mM MgCl2; 0.1 mM Na ortho-vanadate; 1.0 mM dithiothreitol; 0.5 μM adenosine trisphosphate (ATP); 10 μg/measuring point histone IIIS; 0.2 μCi/measuring point ^33P-gamma ATP; 0.05% NP40; 1.25% dimethyl sulphoxide]. The reaction was stopped by adding EDTA solution (250 mM; pH 8.0; 15 μl/measuring point).
From each reaction mixture, 15 μl were applied to P30 filter strips (Wallac), and unincorporated ^33P-ATP was removed by washing the filter strips three times, for 10 min in each case, in 0.5% phosphoric acid. After drying the filter strips for 1 hour at 70°, the filter strips were covered with scintillator strips (MeltiLex™ A, Wallac) and stoved for 1 hour at 90° C. The amount of incorporated ^33P (substrate phosphorylation) was determined by scintillation measurement in a gamma-radiation measuring instrument (Wallac). […] The IC50 values were determined by means of a 4-parameter fit using the company's own software.
Experimental for CDK2/CycE: Recombinant CDK2 and CycE-GST fusion proteins, purified from baculovirus-infected insect cells (Sf9), were purchased from ProQinase GmbH, Freiburg. Histone IIIS, which was used as kinase substrate, was purchased from Sigma.
CDK2/CycE (50 mg/measuring point) was incubated for 10 min at 22° C. in the presence of different concentrations of test substances (0 μM, and within the range 0.001-10 μM) in assay buffer [50 mM Tris/HCl pH 8.0; 10 mM MgCl2; 0.1 mM Na ortho-vanadate; 1.0 mM dithiothreitol; 0.5 μM adenosine trisphosphate (ATP); 10 μg/measuring point histone IIIS; 0.2 μCi/measuring point ^33P-gamma ATP; 0.05% NP40; 1.25% dimethyl sulphoxide]. The reaction was stopped by adding EDTA solution (250 mM; pH 8.0; 15 μl/measuring point).
as §2

Regarding `C[C@@H](O)[C@@H](C)Oc1nc(Nc2ccc(S(C)(=O)=O)cc2)ncc1C(F)(F)F` [Example 2, (2R,3R)-3-[2-(4-Methanesulphonylphenylamino)-5-trifluoromethylpyrimidin-4-yloxy]butan-2-ol], the IC50 on CDK4/CycD1 is 24 nM; in [1] it was 14 nM; in data set [2], 14 nM; in data set [3] (MCF7, 96 h) it was 35 nM; in [4] (NCI-H460, 96 h) it was 38 nM; in data set [5], 34 nM. Besides, the IC50 in data set [6] (Caco-2, 96 h) stood at 66 nM; in data set [7], 70 nM. In data set [8], the Papp A→B (as a rule, the apparent permeability from the apical to the basolateral side of a cell layer) at 90 min worked out at 19.6 ×10⁻⁶ cm/s. In addition, the Papp B→A (usually how fast a substance crosses the layer from the basolateral side) at 90 min in data set [8] came out at 19.4 ×10⁻⁶ cm/s.
For `C[C@@H](O)[C@@H](C)Nc1nc(Nc2ccc(S(C)(=O)=O)cc2)ncc1C(F)(F)F` [C2, (2R,3R)-3-[2-(4-Methanesulphonylphenylamino)-5-trifluoromethylpyrimidin-4-ylamino]butan-2-ol, reference compound], the IC50 on CDK1/CycB stood at 4 nM; at CDK2/CycE it was 4 nM; on CDK4/CycD1, 35 nM; in [9] it was 92 nM; in data set [2] (HeLa-MaTu-ADR, 4 days) it was 32 nM; in data set [3] (96 h, MCF7, 4 days) it was 43 nM. Besides, the IC50 in data set [4] (96 h, NCI-H460, 4 days) was determined as 34 nM; in data set [5] (DU145, 4 days), 75 nM; in data set [6] (96 h, Caco-2, 4 days), 76 nM; in data set [7] (B16F10, 4 days), 89 nM. Moreover, the efflux ratio at 90 min in [8] came to 1. For the same molecule, the Papp A→B at 90 min in [8] amounted to 18 ×10⁻⁶ cm/s. In addition, the Papp B→A at 90 min in [8] turned out to be 17.8 ×10⁻⁶ cm/s.
For `Clc1cccc(Cl)c1N=C1NCCN1` [Clonidine], the “Papp values of reference marker” value in the data set on Caco-2 monolayer is “above 100 nm/s”. The absorbed in people in [10] is reported as 100%.
As for `C[C@@H](O)[C@@H](C)Nc1nc(Nc2ccc(S(=O)(=O)C3CC3)cc2)ncc1C(F)(F)F` [C1, (2R,3R)-3-[2-(4-Cyclopropanesulphonylphenylamino)-5-trifluoromethylpyrimidin-4-ylamino]butan-2-ol, reference compound], the IC50 on CDK1/CycB stood at 8 nM; at CDK2/CycE, 6 nM; at CDK4/CycD1, 52 nM; in data set [9], 51 nM; in [2] (HeLa-MaTu-ADR, 4 days) it was 26 nM; in data set [3] (96 h, MCF7, 4 days) it was 65 nM. Besides, the IC50 in data set [4] (96 h, NCI-H460, 4 days) was 37 nM; in data set [5] (DU145, 4 days), 46 nM; in data set [6] (96 h, Caco-2, 4 days), 63 nM; in data set [7] (B16F10, 4 days), 78 nM. Further, the efflux ratio at 90 min in data set [8] came out at 0.8. Further, the Papp A→B at 90 min in data set [8] is 20.7 ×10⁻⁶ cm/s. The Papp B→A at 90 min in data set [8] amounted to 17.4 ×10⁻⁶ cm/s.
As to `C[C@@H](O)[C@@H](C)Oc1nc(Nc2ccc(S(=O)(=O)C3CC3)cc2)ncc1C(F)(F)F` [Example 1, (2R,3R)-3-[2-(4-Cyclopropanesulphonylphenylamino)-5-trifluoromethylpyrimidin-4-yloxy]butan-2-ol], the IC50 at CDK1/CycB was found to be 16 nM; on CDK2/CycE it was 16 nM; on CDK4/CycD1, 20 nM; in [1] (HeLa-MaTu, 4 days) it was 11 nM; in data set [2] (HeLa-MaTu-ADR, 4 days) it was 9 nM; in data set [3] (96 h, MCF7, 4 days), 23 nM. Also, the IC50 was 41 nM in data set [4] (96 h, NCI-H460, 4 days); 17 nM in [5] (DU145, 4 days); 45 nM in [6] (96 h, Caco-2, 4 days); 49 nM in [7] (B16F10, 4 days). Also, the efflux ratio at 90 min in data set [8] came out at 0.9. Besides, the Papp A→B at 90 min in [8] is 16.5 ×10⁻⁶ cm/s. Also, the Papp B→A at 90 min in [8] was determined as 14.7 ×10⁻⁶ cm/s.
For the molecule `C[C@H]1O[C@@H](O[C@H]2[C@@H](O)C[C@H](O[C@H]3[C@@H](O)C[C@H](O[C@H]4CC[C@@]5(C)[C@H](CC[C@@H]6[C@@H]5C[C@@H](O)[C@]5(C)[C@@H](C7=CC(=O)OC7)CC[C@]65O)C4)O[C@@H]3C)O[C@@H]2C)C[C@H](O)[C@@H]1O` [Digoxin], in the data set with Caco-2 monolayer (Pgp substrate), the “permeability from apical to basolateral” value is “low permeability”.
As for `C[C@@H](Oc1nc(Nc2ccc(S(C)(=O)=O)cc2)ncc1C(F)(F)F)C(C)(C)O` [Example 3, (R)-3-[2-(4-Methanesulphonylphenylamino)-5-trifluoromethylpyrimidin-4-yloxy]-2-methylbutan-2-ol], the IC50 at CDK1/CycB was determined as 32 nM; at CDK2/CycE, 12 nM; on CDK4/CycD1, 78 nM; in [1] (HeLa-MaTu, 4 days), 35 nM; in data set [2] (HeLa-MaTu-ADR, 4 days) it was 39 nM; in [3] (96 h, MCF7, 4 days), 160 nM. Further, the IC50 came out at 140 nM in data set [4] (96 h, NCI-H460, 4 days); 74 nM in [5] (DU145, 4 days); 180 nM in data set [6] (96 h, Caco-2, 4 days); 270 nM in data set [7] (B16F10, 4 days).
